Series [1] concerns the target T1, HBV core protein (UniProt P03146).
T1 construct: fused on or other part: BODIPY-FL maleimide label on the C-terminal Cys150
Nature of the series: Biochemical capsid assembly assay (fluorescence quenching). Conditions: read-out: Assembly Activity (IC50); BODIPY-FL labelled core protein, 300 μM NaCl, read 6 min after start. The arrangement: species or system hepatitis B virus. The gist of the method: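 Purified E. coli-expressed HBV core protein (aa 1-149 plus Cys150), BODIPY-FL maleimide-labelled, at 1.0-2.0 μM in 50 mM HEPES pH 7.5 with 0.5% DMSO was used. Compounds were tested at 8 concentrations (0.5-log dilutions from 100, 31.6 or 10 μM). Assembly was started with NaCl ([…]), and fluorescence quenching was read after 6 min (ex 477/em 525 nm). EC50 was determined by non-linear regression.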

The test system of series [2] is HBV. In words: Determination of HBV DNA from the supernatants of HepAD38 cells (anti-HBV activity). Format: cell-based, hepatitis B virus. To be noted: Hepatitis B virus, read-out: Cell Activity (EC50). The gist of the method:
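HepAD38 cells, tetracycline withdrawn to induce HBV, treated with serial half-log compound dilutions; on day 6 HBV DNA purified from filtered supernatant and quantified by real-time PCR against HBV plasmid standards; EC50 from relative copy numbers by non-linear regression, three experiments in triplicate.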

The nature of series [3]: Cell viability assay (AlamarBlue) in HepAD38 cells. To be noted: human. (In general: Alamar Blue is a resazurin reagent that responds to reducing activity.)
The mark [4] stands for this setting: 144 h, HBV DNA in HepAD38 supernatant, day 6, qPCR.

Where two headings read alike, the source gives them in different places.

By IC50 is commonly meant the concentration needed to halve the response being measured. The term EC50 denotes the concentration needed to bring the measured effect to its halfway point. For orientation: CC50 means the concentration giving 50% cytotoxicity.

T1 sequence (P03146 whole entry, looked up, the tested form may be a part): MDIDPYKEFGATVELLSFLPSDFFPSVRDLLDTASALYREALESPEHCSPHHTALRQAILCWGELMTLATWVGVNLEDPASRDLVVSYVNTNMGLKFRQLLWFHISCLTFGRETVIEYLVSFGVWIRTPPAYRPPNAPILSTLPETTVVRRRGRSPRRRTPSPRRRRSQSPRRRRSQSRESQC

With `CN(CCO)C(=O)c1n[nH]c2c1CN(C(=O)c1cc3ccc(Cl)cc3[nH]1)CC2` [Example 57, 5-(6-chloro-1H-indole-2-carbonyl)-N-(2-hydroxyethyl)-N-methyl-1H,4H,5H,6H,7H-pyrazolo[4,3-c]pyridine-3-carboxamide], in series [1], the IC50 was less than 5 µM. In addition, the EC50 in series [2] (setting [4]) was less than 1000 nM. In series [3], this compound displayed a CC50 at 6 days greater than 100 µM.
Regarding `CN(CCO)C(=O)c1n[nH]c2c1CN(C(=O)c1cc3c(Cl)cccc3[nH]1)CC2` [Example 58, 5-(4-chloro-1H-indole-2-carbonyl)-N-(2-hydroxyethyl)-N-methyl-1H,4H,5H,6H,7H-pyrazolo[4,3-c]pyridine-3-carboxamide], the IC50 in series [1] was less than 5 µM. Moreover, in series [2] (setting [4]), the EC50 is less than 1000 nM. Also, the CC50 at 6 days in series [3] is greater than 100 µM.
The like results for `CN(CCO)C(=O)c1n[nH]c2c1CN(C(=O)c1cc3c(C(F)(F)F)cccc3[nH]1)CC2` [Example 59, N-(2-hydroxyethyl)-N-methyl-5-[4-(trifluoromethyl)-1H-indole-2-carbonyl]-1H,4H,5H,6H,7H-pyrazolo[4,3-c]pyridine-3-carboxamide] were, in that order, less than 5 µM, less than 1000 nM and greater than 32 µM.
The like results for `CN(CCO)C(=O)c1n[nH]c2c1CN(C(=O)c1cc3c(Cl)cc(F)cc3[nH]1)CC2` [Example 60, 5-(4-chloro-6-fluoro-1H-indole-2-carbonyl)-N-(2-hydroxyethyl)-N-methyl-1H,4H,5H,6H,7H-pyrazolo[4,3-c]pyridine-3-carboxamide] were, in that order, less than 5 µM, less than 1000 nM and greater than 32 µM.
For the compound `Cc1cc(F)cc2[nH]c(C(=O)N3CCc4[nH]nc(C(=O)N(C)CCO)c4C3)cc12` [Example 61, 5-(6-fluoro-4-methyl-1H-indole-2-carbonyl)-N-(2-hydroxyethyl)-N-methyl-1H,4H,5H,6H,7H-pyrazolo[4,3-c]pyridine-3-carboxamide], the IC50 in series [1] is less than 5 µM. Also, in series [2] (setting [4]), the EC50 is less than 1000 nM. The compound further had a half-maximal cytotoxic concentration (CC50) at 6 days in series [3] greater than 100 µM.
The matching figures for `CCc1cccc2[nH]c(C(=O)N3CCc4[nH]nc(C(=O)N(C)CCO)c4C3)cc12` [Example 62, 5-(4-ethyl-1H-indole-2-carbonyl)-N-(2-hydroxyethyl)-N-methyl-1H,4H,5H,6H,7H-pyrazolo[4,3-c]pyridine-3-carboxamide]: less than 5 µM, less than 1000 nM and greater than 100 µM.
Regarding `Cc1cccc2[nH]c(C(=O)N3CCc4[nH]nc(C(=O)N(C)CCO)c4C3)cc12` [Example 63, N-(2-hydroxyethyl)-N-methyl-5-(4-methyl-1H-indole-2-carbonyl)-1H,4H,5H,6H,7H-pyrazolo[4,3-c]pyridine-3-carboxamide], the IC50 in series [1] is less than 5 µM. In addition, the EC50 in series [2] (setting [4]) was less than 1000 nM. The CC50 at 6 days in series [3] is greater than 100 µM.
In the case of `CC(C)OC(=O)[C@H](C)NP(=O)(OCCON(C)C(=O)c1n[nH]c2c1CN(C(=O)c1cc3ccccc3[nH]1)CC2)Oc1ccccc1` (stereo partly drawn) [Example 64, propan-2-yl (2S)-2-({[2-({1-[5-(1H-indole-2-carbonyl)-1H,4H,5H,6H,7H-pyrazolo[4,3-c]pyridin-3-yl]-N-methylformamido}oxy)ethoxy](phenoxy)phosphoryl}amino)propanoate], the IC50 in series [1] was less than 5 µM. Besides, the EC50 in series [2] (HePAD38, 144 h) was less than 1000 nM. Also, the CC50 at 6 days in series [3] was greater than 32 µM.
The like results for `CC(C)OC(=O)[C@H](C)NP(=O)(OCCCN(C)C(=O)c1n[nH]c2c1CN(C(=O)c1cc3c(Cl)cccc3[nH]1)CC2)Oc1ccccc1` (stereo partly drawn) [Example 66, propan-2-yl (2S)-2-{[(3-{1-[5-(4-chloro-1H-indole-2-carbonyl)-1H,4H,5H,6H,7H-pyrazolo[4,3-c]pyridin-3-yl]-N-methylformamido}propoxy)(phenoxy)phosphoryl]amino}propanoate] were, in that order, less than 5 µM, less than 1000 nM and greater than 32 µM.
The matching figures for `CC(C)OC(=O)[C@H](C)NP(=O)(OCCN(C)C(=O)c1n[nH]c2c1CN(C(=O)c1cc3c(Cl)cccc3[nH]1)CC2)Oc1ccccc1` (stereo partly drawn) [Example 67, propan-2-yl (2S)-2-{[(2-{1-[5-(4-chloro-1H-indole-2-carbonyl)-1H,4H,5H,6H,7H-pyrazolo[4,3-c]pyridin-3-yl]-N-methylformamido}ethoxy)(phenoxy)phosphoryl]amino}propanoate]: less than 5 µM, less than 1000 nM and greater than 32 µM.
With `CC(C)OC(=O)[C@H](C)NP(=O)(OCCCN(C)C(=O)c1n[nH]c2c1CN(C(=O)c1cc3ccccc3[nH]1)CC2)Oc1ccccc1` (stereo partly drawn) [Example 70, propan-2-yl (2S)-2-{[(3-{1-[5-(1H-indole-2-carbonyl)-1H,4H,5H,6H,7H-pyrazolo[4,3-c]pyridin-3-yl]-N-methylformamido}propoxy)(phenoxy)phosphoryl]amino}propanoate], the IC50 in series [1] was less than 5 µM. For the same compound, the EC50 in series [2] (HePAD38, 144 h) lay within 1000 to 25000 nM. The compound further displayed a CC50 at 6 days in series [3] greater than 32 µM.
For the compound `CC(C)OC(=O)[C@H](C)NP(=O)(OCCN(C)C(=O)c1n[nH]c2c1CN(C(=O)c1cc3ccccc3[nH]1)CC2)Oc1ccccc1` (stereo partly drawn) [Example 71, propan-2-yl (2S)-2-{[(2-{1-[5-(1H-indole-2-carbonyl)-1H,4H,5H,6H,7H-pyrazolo[4,3-c]pyridin-3-yl]-N-methylformamido}ethoxy)(phenoxy)phosphoryl]amino}propanoate], the IC50 in series [1] is 5 to 10 µM. For the same compound, the EC50 in series [2] (HePAD38, 144 h) was in the range of 1000 to 25000 nM. This compound also displayed a CC50 at 6 days in series [3] greater than 32 µM.
Take `CN(c1n[nH]c2c1CN(C(=O)c1cc3ccccc3[nH]1)CC2)S(C)(=O)=O` [Example 74, N-[5-(1H-indole-2-carbonyl)-1H,4H,5H,6H,7H-pyrazolo[4,3-c]pyridin-3-yl]-N-methylmethanesulfonamide]: the IC50 in series [1] was less than 100 µM. In series [2] (setting [4]), the EC50 was in the range of 1000 to 25000 nM. In series [3], this compound had a CC50 at 6 days greater than 100 µM.
The like results for `CN(C)c1n[nH]c2c1CN(C(=O)c1cc3ccccc3[nH]1)CC2` [Example 75, 5-(1H-indole-2-carbonyl)-N,N-dimethyl-1H,4H,5H,6H,7H-pyrazolo[4,3-c]pyridin-3-amine] were, in that order, 5 to 10 µM, less than 1000 nM and greater than 100 µM.
For the compound `O=C(c1cc2ccccc2[nH]1)N1CCc2[nH]nc(NCC3CC3)c2C1` [Example 79, N-(cyclopropylmethyl)-5-(1H-indole-2-carbonyl)-1H,4H,5H,6H,7H-pyrazolo[4,3-c]pyridin-3-amine], in series [1], the half-inhibitory concentration (IC50) fell in the range of 5 to 10 µM. In series [2] (setting [4]), the EC50 was in the range of 1000 to 25000 nM. In addition, the CC50 at 6 days in series [3] is greater than 100 µM.
The matching figures for `CCNc1n[nH]c2c1CN(C(=O)c1cc3ccccc3[nH]1)CC2` [Example 80, N-ethyl-5-(1H-indole-2-carbonyl)-1H,4H,5H,6H,7H-pyrazolo[4,3-c]pyridin-3-amine]: less than 100 µM, 1000 to 25000 nM and greater than 100 µM.
The matching figures for `O=C(c1cc2ccccc2[nH]1)N1CCc2[nH]nc(NCC3CCOCC3)c2C1` [Example 81, 5-(1H-indole-2-carbonyl)-N-[(oxan-4-yl)methyl]-1H,4H,5H,6H,7H-pyrazolo[4,3-c]pyridin-3-amine]: less than 100 µM, 1000 to 25000 nM and greater than 100 µM.
The like results for `CS(=O)(=O)Nc1n[nH]c2c1CN(C(=O)c1cc3ccccc3[nH]1)CC2` [Example 82, N-[5-(1H-indole-2-carbonyl)-1H,4H,5H,6H,7H-pyrazolo[4,3-c]pyridin-3-yl]methanesulfonamide] were, in that order, less than 100 µM, less than 100000 nM and greater than 100 µM.
Consider `CN(CC1CCOCC1)C(=O)c1n[nH]c2c1CN(C(=O)c1cc3ccccc3[nH]1)CC2` [Example 85, 5-(1H-indole-2-carbonyl)-N-methyl-N-[(oxan-4-yl)methyl]-1H,4H,5H,6H,7H-pyrazolo[4,3-c]pyridine-3-carboxamide], for which the IC50 in series [1] is less than 100 µM. In addition, in series [2] (setting [4]), the EC50 fell in the range of 1000 to 25000 nM. This compound also registered a CC50 at 6 days in series [3] greater than 100 µM.
The like results for `O=C(c1cc2ccccc2[nH]1)N1CCc2[nH]nc(NCc3ccccc3)c2C1` [Example 91, N-benzyl-5-(1H-indole-2-carbonyl)-1H,4H,5H,6H,7H-pyrazolo[4,3-c]pyridin-3-amine] were, in that order, 5 to 10 µM, 1000 to 25000 nM and greater than 100 µM.
For the compound `CN(CC1CCOC1)C(=O)c1n[nH]c2c1CN(C(=O)c1cc3ccccc3[nH]1)CC2` (stereo not drawn) [Example 95, 5-(1H-indole-2-carbonyl)-N-methyl-N-[(oxolan-3-yl)methyl]-1H,4H,5H,6H,7H-pyrazolo[4,3-c]pyridine-3-carboxamide], in series [1], the half-inhibitory concentration (IC50) is less than 100 µM. Also, the EC50 in series [2] (setting [4]) is 1000 to 25000 nM. In series [3], this compound returned a CC50 at 6 days greater than 100 µM.
The matching figures for `O=C(NCC1CCOC1)c1n[nH]c2c1CN(C(=O)c1cc3ccccc3[nH]1)CC2` (stereo not drawn) [Example 96, 5-(1H-indole-2-carbonyl)-N-[(oxolan-3-yl)methyl]-1H,4H,5H,6H,7H-pyrazolo[4,3-c]pyridine-3-carboxamide]: less than 100 µM, 1000 to 25000 nM and greater than 100 µM.

For the origin of these results see US11236087B2, “Highly active pyrazolo-piperidine substituted indole-2-carboxamides active against the hepatitis B virus (HBV)” (AiCuris GmbH & Co. KG, priority 2017, dated 2022).
